Measured values as given in patent US9597407B2, “Targeted antimicrobial moieties” (C3 Jian, Inc., priority 2009, dated 2017).
Entries after “also recorded” stand apart in the source; their conditions may differ.

Tests used:
bacteria = assay: Binding of targeting peptides to microorganisms (Table 3); conditions: preferably 1x PBS; for Target(s) (microorganisms bound by the targeting peptide) / Target(s) (microorganism bound by the targeting peptide): peptide binding in aqueous buffers that varied depending on peptide solubility
microorganisms = assay: Morphology, biofilm and growth disruption by peptides (Table 5); format: cell-based; design: key: A: Peptide aggregates; B: Less hyphal formation; Clumps; Diffuse clumps and small polyps; F: Diffuse growth; H: Thin; I: Growth inhibition; Microcolony formation; Rippled; Small polyps; Thick; W: Halo formation on top, microlonies on bottom
Text: In certain embodiments peptides that induce alterations in phenotype or other biological activities can also be used as antimicrobial effector moieties.

[1] = microorganism bound by the targeting peptide, binding in aqueous buffers chosen by peptide solubility
[2] = microorganism the targeting peptide binds, binding in aqueous buffers that varied with peptide solubility

## PF-408 (YCVPLGNMGNMNNKIW; Peptide with targeting and/or antimicrobial activity)
bacteria
  Target(s) (microorganisms bound by the targeting peptide): S. epidermidis and E. coli and P. aeruginosa and MRSA and E. faecalis and C. jeikeium and C. jejuni
microorganisms; MRSA
  Organism, effect: MRSA (M)
microorganisms; S. epidermidis
  Organism, effect: S. epidermidis (M)

## MIRIRSPTKKKLNRNSISDWKSNTSGRFFY [PF-283]
bacteria; [1]
  Target(s): B. subtilis; also recorded: B. fragilis; also recorded: C. difficile
microorganisms; B. subtilis
  Organism, effect: B. subtilis (H)
microorganisms; S. epidermidis
  Organism, effect: S. epidermidis (H)

## PF-249 (INSRYKISF; Peptide with targeting and/or antimicrobial activity)
bacteria; [1]
  Target(s): S. epidermidis; also recorded: M. luteus
microorganisms; M. luteus
  Organism, effect: M. luteus (R)

## PF-C143 (VVFGGGDRLV; Peptide with targeting and/or antimicrobial activity)
bacteria
  Target(s) (microorganism bound by the targeting peptide): A. naeslundii; also recorded: F. nucleatum; also recorded: P. gingivalis; also recorded: S. mutans; also recorded: T. denticola
microorganisms; F. nucleatum
  Organism, effect (morphology, biofilm and growth disruption): F. nucleatum (C)

## PF-660 (chain 1 TDPQATAAPRRRTSPR; chain 2 TDPQATAAPRRRTSPR; Peptide with targeting and/or antimicrobial activity)
bacteria
  Target(s) (microorganism bound by the targeting peptide): Mycobacteria spp
microorganisms; S. pneumoniae
  Organism, effect (morphology, biofilm and growth disruption): S. pneumoniae (H)

## PF-C062 (PLARATEVVATLFIICSLLLYLTR; Peptide with targeting and/or antimicrobial activity)
bacteria
  Target(s) (microorganism bound by the targeting peptide): A. naeslundii; also recorded: F. nucleatum; also recorded: P. gingivalis; also recorded: S. mutans; also recorded: T. denticola
microorganisms; F. nucleatum
  Organism, effect (morphology, biofilm and growth disruption): F. nucleatum (T)
microorganisms; S. mutans
  Organism, effect (morphology, biofilm and growth disruption): S. mutans (I)

## LIQKGLNQTFIVVIRLNNFIKKS [PF-013]
bacteria; [2]
  Target(s): M. luteus and P. mirabilis and E. coli and P. aeruginosa and MRSA and S. pneumoniae and C. jeikeium and C. jejuni
microorganisms; C. jeikeium
  Organism, effect: C. jeikeium (D)
microorganisms; M. luteus
  Organism, effect: M. luteus (D)
microorganisms; MRSA
  Organism, effect: MRSA (R)
microorganisms; S. epidermidis
  Organism, effect: S. epidermidis (C)

## PF-010 (chain 1 MDIDVNKLLQAFVYFKSFEKLRHNNS; chain 2 MDIDVNKLLQAFVYFKSFEKLRHNNS; Peptide with targeting and/or antimicrobial activity)
bacteria; [2]
  Target(s): S. epidermidis; also recorded: M. luteus; also recorded: E. coli; also recorded: C. albicans
microorganisms; C. jeikeium
  Organism, effect: C. jeikeium (A)
microorganisms; M. luteus
  Organism, effect: M. luteus (A)
microorganisms; MRSA
  Organism, effect: MRSA (R)
microorganisms; S. epidermidis
  Organism, effect: S. epidermidis (S)

## HCVIGNVVDIANLLKRRAVYRDIADVIKMR [PF-071]
bacteria; [2]
  Target(s): S. epidermidis and E. coli and P. aeruginosa and C. albicans and MRSA
microorganisms; B. subtilis
  Organism, effect: B. subtilis (D)
microorganisms; C. albicans
  Organism, effect: C. albicans (B)
microorganisms; C. jejuni
  Organism, effect: C. jejuni (A)
microorganisms; M. luteus
  Organism, effect: M. luteus (R)
microorganisms; MRSA
  Organism, effect: MRSA (C)
microorganisms; S. epidermidis
  Organism, effect: S. epidermidis (R)
microorganisms; S. pneumoniae
  Organism, effect: S. pneumoniae (A)

## PF-695 (chain 1 ALSVMLGNIPLVVPNANQL; chain 2 ALSVMLGNIPLVVPNANQL; Peptide with targeting and/or antimicrobial activity)
bacteria
  Target(s) (microorganism bound by the targeting peptide): Mycobacteria spp
microorganisms; E. faecalis
  Organism, effect (morphology, biofilm and growth disruption): E. faecalis (R)
microorganisms; MRSA
  Organism, effect (morphology, biofilm and growth disruption): MRSA (R)
microorganisms; S. pneumoniae
  Organism, effect (morphology, biofilm and growth disruption): S. pneumoniae (C)

## PF-704 (chain 1 APAARAAL; chain 2 APAARAAL; Peptide with targeting and/or antimicrobial activity)
bacteria
  Target(s) (microorganism bound by the targeting peptide): Mycobacteria spp
microorganisms; S. pneumoniae
  Organism, effect (morphology, biofilm and growth disruption): S. pneumoniae (C)

## VLPFPAIPLSRRRACVAAPRPRSRQRAS [PF-168]
bacteria; [1]
  Target(s): S. epidermidis and M. luteus and E. coli and C. albicans and MRSA and C. jeikeium and C. jejuni
microorganisms; MRSA
  Organism, effect: MRSA (I)
microorganisms; P. aeruginosa
  Organism, effect: P. aeruginosa (H)

## PF-069 (FDPVPLKKDKSASKHSHKHNH; Peptide with targeting and/or antimicrobial activity)
bacteria; [2]
  Target(s): E. faecalis; also recorded: C. jejuni
microorganisms; B. subtilis
  Organism, effect: B. subtilis (D)
microorganisms; C. jejuni
  Organism, effect: C. jejuni (R)

## PF-235 (GIPFSKPHKRQVNYMKSDVLAYIEQNKMAHTA; Peptide with targeting and/or antimicrobial activity)
bacteria; [1]
  Target(s): S. epidermidis; also recorded: M. luteus
microorganisms; M. luteus
  Organism, effect: M. luteus (T)

## PF-681 (chain 1 TALTTVGVSGARLITYCVGVEDI; chain 2 TALTTVGVSGARLITYCVGVEDI; Peptide with targeting and/or antimicrobial activity)
bacteria
  Target(s) (microorganism bound by the targeting peptide): M. smegmatis
microorganisms; C. jeikeium
  Organism, effect (morphology, biofilm and growth disruption): C. jeikeium (R)
microorganisms; E. faecalis
  Organism, effect (morphology, biofilm and growth disruption): E. faecalis (R)
microorganisms; MRSA
  Organism, effect (morphology, biofilm and growth disruption): MRSA (M)
microorganisms; S. epidermidis
  Organism, effect (morphology, biofilm and growth disruption): S. epidermidis (M)
microorganisms; S. pneumoniae
  Organism, effect (morphology, biofilm and growth disruption): S. pneumoniae (M)

## PF-675 (chain 1 EIIPISPTRRCEMHTMSSAEYRGL; chain 2 EIIPISPTRRCEMHTMSSAEYRGL; Peptide with targeting and/or antimicrobial activity)
bacteria
  Target(s) (microorganism bound by the targeting peptide): Mycobacteria spp
microorganisms; E. faecalis
  Organism, effect (morphology, biofilm and growth disruption): E. faecalis (R)
microorganisms; S. pneumoniae
  Organism, effect (morphology, biofilm and growth disruption): S. pneumoniae (C)

## PF-640 (chain 1 MGDINRNF; chain 2 MGDINRNF; Peptide with targeting and/or antimicrobial activity)
bacteria
  Target(s) (microorganism bound by the targeting peptide): C. albicans
microorganisms; C. albicans
  Organism, effect (morphology, biofilm and growth disruption): C. albicans (B)
microorganisms; E. faecalis
  Organism, effect (morphology, biofilm and growth disruption): E. faecalis (H)
microorganisms; S. pneumoniae
  Organism, effect (morphology, biofilm and growth disruption): S. pneumoniae (I)

## PF-428 (ENEESIF; Peptide with targeting and/or antimicrobial activity)
bacteria
  Target(s) (microorganisms bound by the targeting peptide): S. epidermidis; also recorded: C. albicans; also recorded: E. faecalis; also recorded: C. jeikeium
microorganisms; S. pneumoniae
  Organism, effect (morphology, biofilm and growth disruption): S. pneumoniae (H)

## PF-175 (RRRPAGQRPEKASQAMIAA; Peptide with targeting and/or antimicrobial activity)
bacteria; [1]
  Target(s): S. epidermidis; also recorded: E. faecalis
microorganisms; B. subtilis
  Organism, effect: B. subtilis (D)
microorganisms; C. albicans
  Organism, effect: C. albicans (B)
microorganisms; C. jejuni
  Organism, effect: C. jejuni (M)
microorganisms; M. luteus
  Organism, effect: M. luteus (S)
microorganisms; S. pneumoniae
  Organism, effect: S. pneumoniae (A)

## VWENRKKYLENEIERHNVFLKLGQEVIKGLNALASRGR [PF-257]
bacteria; [1]
  Target(s): S. epidermidis
microorganisms; M. luteus
  Organism, effect: M. luteus (R)

## PF-C069 (NALMLREMQLAKNIKVEVTDVLSNKKYC; Peptide with targeting and/or antimicrobial activity)
bacteria
  Target(s) (microorganism bound by the targeting peptide): A. naeslundii; also recorded: F. nucleatum; also recorded: P. gingivalis; also recorded: S. mutans; also recorded: T. denticola
microorganisms; F. nucleatum
  Organism, effect (morphology, biofilm and growth disruption): F. nucleatum (T)

## CGKLLEQKNFFLKTR [PF-521]
bacteria
  Target(s) (microorganisms bound by the targeting peptide): S. epidermidis; also recorded: E. coli; also recorded: P. aeruginosa; also recorded: S. pneumoniae; also recorded: E. faecalis
microorganisms; S. pneumoniae
  Organism, effect (morphology, biofilm and growth disruption): S. pneumoniae (H)

## PF-171 (TQVTLCRTW; Peptide with targeting and/or antimicrobial activity)
bacteria; [1]
  Target(s): S. epidermidis; also recorded: E. coli; also recorded: P. aeruginosa; also recorded: S. pneumoniae
microorganisms; B. subtilis
  Organism, effect: B. subtilis (D)
microorganisms; C. jejuni
  Organism, effect: C. jejuni (R)
microorganisms; M. luteus
  Organism, effect: M. luteus (R)
microorganisms; MRSA
  Organism, effect: MRSA (M)
microorganisms; S. epidermidis
  Organism, effect: S. epidermidis (R)
microorganisms; S. pneumoniae
  Organism, effect: S. pneumoniae (D)

## PF-657 (chain 1 YVANYTITQFGRDFDDRLAVAIHFA; chain 2 YVANYTITQFGRDFDDRLAVAIHFA; Peptide with targeting and/or antimicrobial activity)
bacteria
  Target(s) (microorganism bound by the targeting peptide): Mycobacteria spp
microorganisms; C. jeikeium
  Organism, effect (morphology, biofilm and growth disruption): C. jeikeium (D)
microorganisms; E. faecalis
  Organism, effect (morphology, biofilm and growth disruption): E. faecalis (D)
microorganisms; MRSA
  Organism, effect (morphology, biofilm and growth disruption): MRSA (D)
microorganisms; S. epidermidis
  Organism, effect (morphology, biofilm and growth disruption): S. epidermidis (C)
microorganisms; S. pneumoniae
  Organism, effect (morphology, biofilm and growth disruption): S. pneumoniae (H)

## PF-224 (DYFYITLSQKNTF; Peptide with targeting and/or antimicrobial activity)
bacteria; [1]
  Target(s): S. epidermidis; also recorded: P. aeruginosa; also recorded: A. baumannii
microorganisms; M. luteus
  Organism, effect: M. luteus (T)

## LNFRAENKILEKIHISLIDTVEGSA [PF-575]
bacteria
  Target(s) (microorganisms bound by the targeting peptide): M. luteus and E. coli and C. albicans and MRSA and S. pneumoniae and E. faecalis and C. jeikeium
microorganisms; C. jeikeium
  Organism, effect (morphology, biofilm and growth disruption): C. jeikeium (A)
microorganisms; C. jejuni
  Organism, effect (morphology, biofilm and growth disruption): C. jejuni (R)
microorganisms; P. aeruginosa
  Organism, effect (morphology, biofilm and growth disruption): P. aeruginosa (A)
microorganisms; S. pneumoniae
  Organism, effect (morphology, biofilm and growth disruption): S. pneumoniae (A)

## PF-008 (chain 1 MIEIGSIAYLNGGSKKYNHILNQENR; chain 2 MIEIGSIAYLNGGSKKYNHILNQENR; Peptide with targeting and/or antimicrobial activity)
bacteria; [2]
  Target(s): S. epidermidis and M. luteus and MRSA and C. jejuni
microorganisms; B. subtilis
  Organism, effect: B. subtilis (D)
microorganisms; C. jejuni
  Organism, effect: C. jejuni (R)

## PF-667 (chain 1 PAHQRLRIDQRLVADRDMVQDYES; chain 2 PAHQRLRIDQRLVADRDMVQDYES; Peptide with targeting and/or antimicrobial activity)
bacteria
  Target(s) (microorganism bound by the targeting peptide): Mycobacteria spp
microorganisms; E. faecalis
  Organism, effect (morphology, biofilm and growth disruption): E. faecalis (R)
microorganisms; MRSA
  Organism, effect (morphology, biofilm and growth disruption): MRSA (R)
microorganisms; S. epidermidis
  Organism, effect (morphology, biofilm and growth disruption): S. epidermidis (R)
microorganisms; S. pneumoniae
  Organism, effect (morphology, biofilm and growth disruption): S. pneumoniae (R)
